Measured values taken from patent publication US20070219212A1, “Pyranouidole Derivatives and the Use Thereof for the Treatment of Hepatitis C Virus Infection or Disease” (priority 2004, published 2007).
Like-named read-outs stand apart in the source and are kept apart here.

Experiments:
[1] = molecular target: BB7 RNA-dependent RNA polymerase hepatitis C virus protein (Con1 HCV sequence) (Hepatitis C virus genotype 1b, UniProt Q9WMX2); assay: Hepatitis C polymerase (BB7) inhibition; type: biochemical
Procedure, shortened: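 Con1 (BB7) replicon-derived NS5B polymerase preincubated with compound (15% DMSO) 15 min at room temperature, then RNA template (~3 nM pOF) and nucleotides added. Reaction run 2 h at 22-25° C., stopped with EDTA (85 mM final). ^33P-labelled product captured on filters, washed with 0.5 M sodium phosphate pH 7.0, scintillation counted.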

[2] = molecular target: T1, NS5B from the BK strain (genotype 1b) (Hepatitis C virus genotype 1b, UniProt P26663); assay: Hepatitis C polymerase (NS5B, BK strain) inhibition, radioactive filter assay; type: biochemical; conditions: NS5B BK strain (genotype 1b)
T1 construct: NS5B from the BK strain (genotype 1b) is expressed in E coli as a protein in which the 21 C-terminal amino acids are replaced; made in house; host or cells: E. coli
Procedure, shortened: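 E. coli-expressed C-terminally truncated His-tagged NS5B preincubated 15 min with compound at room temperature, then run 2 h at 22-25 °C on a hairpin-primed heteropolymeric RNA template (~3 nM) with radioactive nucleotides. EDTA stop; ~760 nt 33P product captured on filters, washed with phosphate buffer pH 7.0, scintillation counted.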

[3] = BB7 (Con1) NS5B, read-out: BB7 IC50

T1 sequence (P26663 2420-2989): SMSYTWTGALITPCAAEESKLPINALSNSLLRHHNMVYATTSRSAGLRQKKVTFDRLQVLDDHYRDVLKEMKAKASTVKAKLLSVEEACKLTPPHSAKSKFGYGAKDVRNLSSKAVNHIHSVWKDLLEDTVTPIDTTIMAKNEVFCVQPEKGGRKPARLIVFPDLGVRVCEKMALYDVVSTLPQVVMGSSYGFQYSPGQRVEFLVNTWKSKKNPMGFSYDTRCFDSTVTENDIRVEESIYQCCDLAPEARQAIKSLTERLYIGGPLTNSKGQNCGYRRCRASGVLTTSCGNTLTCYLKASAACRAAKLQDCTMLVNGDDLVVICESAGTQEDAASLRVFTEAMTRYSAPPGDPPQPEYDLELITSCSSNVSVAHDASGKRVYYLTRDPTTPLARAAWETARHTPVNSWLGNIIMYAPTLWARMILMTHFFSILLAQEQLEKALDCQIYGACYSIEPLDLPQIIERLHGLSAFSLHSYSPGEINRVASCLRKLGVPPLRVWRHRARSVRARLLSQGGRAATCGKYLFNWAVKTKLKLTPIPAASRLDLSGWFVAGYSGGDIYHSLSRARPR
BB7 RNA-dependent RNA polymerase hepatitis C virus protein (Con1 HCV sequence), sequence (Q9WMX2 2420-3010): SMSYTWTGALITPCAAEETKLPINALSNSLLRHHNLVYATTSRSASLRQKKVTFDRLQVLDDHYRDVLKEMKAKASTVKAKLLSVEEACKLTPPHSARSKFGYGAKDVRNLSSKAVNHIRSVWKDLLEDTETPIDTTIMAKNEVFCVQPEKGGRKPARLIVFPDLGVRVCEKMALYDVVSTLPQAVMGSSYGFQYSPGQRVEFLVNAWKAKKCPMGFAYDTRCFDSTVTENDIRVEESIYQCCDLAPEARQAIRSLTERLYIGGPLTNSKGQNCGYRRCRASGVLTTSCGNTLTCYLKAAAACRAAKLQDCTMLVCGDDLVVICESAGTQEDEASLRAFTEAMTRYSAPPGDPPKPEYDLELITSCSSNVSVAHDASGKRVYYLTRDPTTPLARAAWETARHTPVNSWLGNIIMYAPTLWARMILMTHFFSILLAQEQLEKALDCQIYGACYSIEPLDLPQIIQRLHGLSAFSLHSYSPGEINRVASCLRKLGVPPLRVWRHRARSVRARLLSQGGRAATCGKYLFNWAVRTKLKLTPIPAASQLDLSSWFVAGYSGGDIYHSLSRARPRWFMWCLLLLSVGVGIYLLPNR

Molecule | IC50 [1] | IC50 [2] | IC50 [1, 3]
CCCC1(CC(=O)O)OCCc2c1[nH]c1c(C)c(OCc3cccnc3)cc(C#N)c21 (stereo not shown) [Example 41] | < 500 nM | < 500 nM | –
CCC[C@]1(CC(=O)O)OCCc2c1[nH]c1c(C)c(OC[C@@H](C)OC)cc(C#N)c21 [Example 28, (1R,2′R)-[5-Cyano-7-(2-methoxy-propoxy)-8-methyl-1-propyl-1,3,4,9-tetrahydro-pyrano[3,4-b]indol-1-yl]-acetic acid] | < 500 nM | < 500 nM | –
CCC[C@]1(CC(=O)O)OCCc2c1[nH]c1c(C)c(OCCOC(C)C)cc(C#N)c21 [Example 26, (R)-[5-Cyano-7-(2-isopropoxy-ethoxy)-8-methyl-1-propyl-1,3,4,9-tetrahydro-pyrano[3,4-b]indol-1-yl]-acetic acid] | < 500 nM | < 500 nM | –
CCCC1(CC(=O)O)OCCc2c1[nH]c1c(C)c(COC3CCCCC3)cc(C#N)c21 (stereo not shown) [Example 7, (5-Cyano-7-cyclohexyloxymethyl-8-methyl-1-propyl-1,3,4,9-tetrahydro-pyrano[3,4-b]indol-1-yl)-acetic acid] | 500 to 5000 nM | 500 to 5000 nM | –
CCCC1(CC(=O)O)OCCc2c1[nH]c1c(C)c(OCc3cc(CC)n(CC)n3)cc(C#N)c21 (stereo not shown) [Example 138] | – | < 500 nM | < 500 nM
CCCC1(CC(=O)O)OCCc2c1[nH]c1c(C)c(OCCCc3cc(C)no3)cc(C#N)c21 (stereo not shown) [Example 89] | < 500 nM | < 500 nM | –
CCCC1(CC(=O)O)OCCc2c1[nH]c1c(C)c(OCCOCc3ccccc3)cc(C#N)c21 (stereo not shown) [Example 117] | < 500 nM | < 500 nM | –
CCCC1(CC(=O)O)OCCc2c1[nH]c1c(C)c(CO)cc(C#N)c21 (stereo not shown) [Example 1, (5-Cyano-7-hydroxymethyl-8-methyl-1-propyl-1,3,4,9-tetrahydro-pyrano[3,4-b]indol-1-yl)-acetic acid] | < 500 nM | < 500 nM | –
CCCC1(CC(=O)O)OCCc2c1[nH]c1c(C)c(OCC(=O)NC)cc(C#N)c21 (stereo not shown) [Example 103] | < 500 nM | < 500 nM | –
CCCC1(CC(=O)O)OCCc2c1[nH]c1c(C)c(COc3ccccc3)cc(C#N)c21 (stereo not shown) [Example 20, (5-Cyano-8-methyl-7-phenoxymethyl-1-propyl-1,3,4,9-tetrahydro-pyrano[3,4-b]indol-1-yl)-acetic acid] | 500 to 5000 nM | 500 to 5000 nM | –
CCCC1(CC(=O)O)OCCc2c1[nH]c1c(C)c(COC)cc(C#N)c21 (stereo not shown) [Example 2, (5-Cyano-7-methoxymethyl-8-methyl-1-propyl-1,3,4,9-tetrahydro-pyrano[3,4-b]indol-1-yl)-acetic acid] | < 500 nM | 500 to 5000 nM | –
[5-Cyano-8-methyl-1-propyl-7-(tetrahydro-pyran-4-ylmethoxymethyl)-1,3,4,9-tetrahydro-pyrano[3,4-b]indol-1-yl]-acetic acid [Example 12] | – | 500 to 5000 nM | 500 to 5000 nM
CCCC1(CC(=O)O)OCCc2c1[nH]c1c(C)c(OCc3ccnc(C)c3)cc(C#N)c21 (stereo not shown) [Example 52] | < 500 nM | < 500 nM | –
CCCC1(CC(=O)O)OCCc2c1[nH]c1c(C)c(OCc3nnc(C(C)(C)C)s3)cc(C#N)c21 (stereo not shown) [Example 87] | < 500 nM | < 500 nM | –
